# According to article PMC12297955, “Comparative Study: Biguanide-, Sulfonamide-, and Natural Agent-Based Interventions in an In Vivo Experimental Diabetes Model” (Medicina, 2025):
# Values joined by “and” are separate entries in the source; they are usually repeats but may differ in a detail not shown here. Equal values may be shown once.
# Columns and labels:
# [1] = tested on: alloxan-induced diabetic rats; experiment: Blood glucose level in alloxan-induced diabetes model; format: in vivo, Wistar female rats; details: mean ± SD; for Blood glucose (BG) level, mean: alloxan-induced diabetic rats, oral gavage daily for 5 weeks, metformin 300 mg/kg/day, S 150 mg/kg/day, sage extract 150 mg/kg/day; for Average blood glucose reduction (pre- vs post-treatment): end of week 3 vs end of week 8, oral daily 5 weeks, metformin 300, S 150, sage 150 mg/kg/day
# Procedure: The in vivo experiment was conducted using Wistar female rats, obtained through the “Grigore T. Popa” University of Medicine and Pharmacy (UMF) Iași, from the Cantacuzino Institute in Bucharest, Romania. Throughout the experimental period, the animals were housed at the CEMEX biobase, within the UMF “Grigore T. Popa” Iași. […] Female rats were selected in alignment with the broader research objective focused on diabetes-induced alterations of the female reproductive system.
# Following a 7-day acclimatization period, diabetes was induced in groups 2–6 by a single intraperitoneal injection of alloxan at a dose of 150 mg/kg body weight.
# Blood glucose (BG) was assessed 5 days post-administration using peripheral tail vein blood. A threshold of 200 mg/dL was used to confirm severe hyperglycemia. […] The end of week 3 thus marked the point of confirmed diabetes and the onset of pharmacological interventions. […] The full experimental timeline extended over 8 weeks.
# To minimize potential confounders, all experimental procedures—including compound administration and blood glucose level measurements— were performed at the same time of day for all animals. Blood glucose (BG) levels were monitored weekly using a portable glucometer (tail vein blood).
# To quantify the hypoglycemic effect of the applied treatments, the percentage decrease in blood glucose was calculated based on pre- and post-treatment values using the following formula: Absolute decrease in blood glucose %=blood glucose (pre−treatment)−blood glucose (post−treatment)/blood glucose (pre−treatment)×100
# [2] = Plasma steady-state concentration by HPLC and volume of distribution; details: female, Wistar, rat, oral, 300 mg/kg/day, rats, oral daily dosing 5 weeks, HPLC, metformin 300 mg/kg/day, S 150 mg/kg/day
# Procedure: At the end of the experimental period, blood samples were collected from the retro-orbital plexus under ketamine anesthesia (75 mg/kg body weight). Samples were collected into EDTA-coated tubes and stored at −20 °C until biochemical analyses were performed. Finally, the animals were humanely euthanized using Thiopental 0.01%.
# Extraction of the target compounds from whole blood samples was performed using a liquid–liquid extraction method, with dichloromethane as the organic solvent (sample: solvent ratio 1:2). The extraction was carried out under acidic conditions (pH 3, using 4% acetic acid). Following centrifugation, the organic phase was evaporated under a stream of high-purity nitrogen gas at 40 °C (Thermo Scientific, Bremen, Germany). The resulting dry residue was reconstituted in 500 µL of 10% methanol in water.
# Separation was achieved on a 150-4.6 LiChrospher®RP-18, 5 µm, column (Merck, Darmstadt, Germany). […] The flow rate was set to 1.0 mL/min, and the total run time for each analysis was 30 min.
# The volume of distribution at steady state (Vd) was calculated using the following formula: Vd=D/Css(L) where D represents the administered dose, calculated individually based on each animal’s body weight (mg/kg), and Css is the steady-state plasma concentration (mg/L).
# [3] = set-up: method as in earlier work; details: rats, ref 42 (Choi et al. 2006); cited from earlier work
"concentration at 5 weeks ([2]; Average plasma concentration (steady state), mean ± SD) [ng/mL]","concentration at 5 weeks ([2]; Plasma concentration, range) [ng/mL]",Molecule,"Blood glucose (BG) level, mean [1] [mg/dL]",Average blood glucose reduction (pre- vs post-treatment) [1],Fraction of oral dose subject to gastrointestinal and hepatic first-pass effects [3]
–,–,N-(diaminomethylene)-4-methylbenzenesulfonamide,236.0 ± 94.70,40.6% and 40.95 ± 15.94%,–
5320 ± 1580,3170 to 7540,CN(C)C(=N)N=C(N)N [metformin],224.8 ± 192.78,36.4% and 36.46 ± 32.5% and 36.46%,approximately 65%
